Results published in patent US5227485A, “Pyrazolo[3,4-d]pyrimidines with adenosine-like binding affinities” (Griffith University, priority 1990, dated 1993).
pIC50, pKd, pKi: −log10 of the molar value.

Experiments:
[1] = system: adenosine uptake system (nucleoside transporter); settings: cited from earlier work
mice = settings: oral or intraperitoneal; cited from earlier work
A1 site = settings: cited from earlier work
A2 site = settings: cited from earlier work
adenosine deaminase = settings: cited from earlier work
cerebellar cyclic GMP = settings: in vivo; cited from earlier work
benzodiazepine receptors = settings: cited from earlier work
[2] = in vivo; rats (printed "rates"); cited from earlier work
mouse spinal cord = settings: at doses in which neuromuscular junction transmission was unaltered; cited from earlier work
A1 receptor = molecular target: T1, A1 receptor (Rattus norvegicus, UniProt P25099); test: IC50 at the A1 receptor (^3 H-PIA); type: binding; settings: for pIC50: ^3 H-PIA
T1 sequence (P25099 1-326): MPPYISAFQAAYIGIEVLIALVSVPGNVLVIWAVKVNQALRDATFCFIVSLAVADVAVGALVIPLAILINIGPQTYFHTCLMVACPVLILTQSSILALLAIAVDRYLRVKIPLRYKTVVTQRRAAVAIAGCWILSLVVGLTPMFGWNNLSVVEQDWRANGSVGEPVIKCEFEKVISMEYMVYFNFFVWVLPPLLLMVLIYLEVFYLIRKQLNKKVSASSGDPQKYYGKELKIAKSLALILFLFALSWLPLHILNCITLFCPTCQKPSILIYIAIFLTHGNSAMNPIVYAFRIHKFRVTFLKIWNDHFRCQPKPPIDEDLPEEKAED

A2 receptor = A2 receptor (Rattus norvegicus, UniProt P30543); test: IC50 at the A2 receptor (^3 H-CGS21680); type: binding
A1 surface receptors = settings: both sites, in words; cited from earlier work
A2 surface receptors = settings: cited from earlier work; for agonism at the A2 site: in words
rats = settings: NECA vs R-PIA; cited from earlier work
animals = settings: cited from earlier work
[3] = system: noradrenaline-contracted guinea pig aorta; settings: by interactions with A2 receptors; cited from earlier work
[4] = in vivo; cited from earlier work
[5] = system: coronary vascular smooth muscle; settings: cited from earlier work
[6] = because of antagonism of the effects of extracellular adenosine; cited from earlier work

Sequence of A2 receptor (P30543 whole entry): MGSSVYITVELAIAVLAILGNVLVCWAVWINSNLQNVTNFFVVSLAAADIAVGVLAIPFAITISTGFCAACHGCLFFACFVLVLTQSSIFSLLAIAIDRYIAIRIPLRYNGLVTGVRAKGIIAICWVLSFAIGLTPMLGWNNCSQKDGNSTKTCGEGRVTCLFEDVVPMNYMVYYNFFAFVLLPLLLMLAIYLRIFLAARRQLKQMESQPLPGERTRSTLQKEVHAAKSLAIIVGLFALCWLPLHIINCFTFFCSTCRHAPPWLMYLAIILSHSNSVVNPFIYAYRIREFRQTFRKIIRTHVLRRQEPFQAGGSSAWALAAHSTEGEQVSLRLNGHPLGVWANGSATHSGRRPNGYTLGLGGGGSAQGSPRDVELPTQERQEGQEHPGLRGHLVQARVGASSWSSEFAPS

With `Cn1c(N)c2ncn([C@@H]3O[C@H](CO)[C@@H](O)[C@H]3O)c2nc1=O` [1-methylisoguanosine] as the compound, how does the “substrate for, or inhibitor of, the adenosine uptake system” value [1] read?
The value was “poor substrate for, or inhibitor of, the adenosine uptake system”.

And the “muscle relaxation and hypothermia” value (mice)?
The value was “potent muscle relaxation and hypothermine”.

What about the “interaction with extracellular adenosine receptors, A1 site” value (A1 site) of the same compound?
Its value is “can interact with extracellular adenosine receptors”.

What about the “interaction with extracellular adenosine receptors, A2 site” value (A2 site) of the same compound?
The value was “can interact with extracellular adenosine receptors”.

And the “degradation by adenosine deaminase” value (adenosine deaminase)?
The value was “resistant to degradation by adenosine deaminase”.

What about the “cerebellar levels of cyclic GMP” value (cerebellar cyclic GMP) of the same compound?
Its value is “decreases cerebellar levels of cyclic GMP”.

What about the pKi (benzodiazepine receptors; benzodiazepine receptors, read-out: Ki vs ^3 H-diazepam binding) of the same compound?
Its pKi is ~4.77.

What about the “potency at benzodiazepine receptors relative to inosine and hypoxanthine” value (benzodiazepine receptors; comparison in words) of the same compound?
The value was “several hundred fold more potent than inosine and hypoxanthine”.

And the “effect on blood pressure and heart rate” value [2]?
The value was “reduced blood pressure and heart rate”.

What about the “polysynaptic responses in the mouse spinal cord” value (mouse spinal cord) of the same compound?
Its value is “blocked polysynaptic responses”.

With `CCCCSc1cc(Nc2ccccc2)nc(SC(C)C(N)=O)n1` (centres unmarked) [Compound 1, (2-n-butylthio)-4-(N-phenyl)-6-propionamidyl thiopyrimidine] as the compound, how does the “affinity for the A1 receptor” value (A1 receptor; in words) read?
Its value is “moderate affinity”.

With `CCC(Sc1nc(SC(CC)C(N)=O)c2cnn(-c3ccccc3)c2n1)C(N)=O` (stereo not drawn) [Compound 4, 4,6-bis-α-carbamoylpropylthio-1-phenylpyrazolo[3,4-d]pyrimidine] as the compound, how does the pIC50 (A1 receptor) read?
Its pIC50 is 6.97.

And the “potency of butanamide side chain versus propionamide moiety in FIG. 3” value (A1 receptor; comparison in words)?
The value was “increased potency over the proprionamide moiety”.

With `CCC(Sc1nc2c(cnn2-c2ccccc2)c(=S)[nH]1)C(N)=O` (stereo not drawn) [Compound 5, 6-α-carbamoylpropylthio-4-mercapto-1-phenylpyrazolo[3,4-d]pyrimidine] as the compound, how does the pIC50 (A1 receptor) read?
The pIC50 was 6.31.

With `CCNC(=O)C(C)Sc1nc(SC(C)C(=O)NCC)c2cnn(-c3ccccc3)c2n1` (stereo not drawn) [Compound 6, 4,6-Bis-α-N-ethylcarbamoylethylthio-1-phenylpyrazolo[3,4-d]pyrimidine] as the compound, how does the pIC50 (A2 receptor) read?
Its pIC50 is 6.24.

And the pIC50 (A1 receptor)?
The pIC50 was 6.24.

With `CCNC(=O)C(C)Sc1nc(S)c2cnn(-c3ccccc3)c2n1` (stereo not drawn) [Compound 7, 6-α-N-Ethylcarbamoylethylthio-4-mercapto-1-phenylpyrazolo[3,4-d]pyrimidine] as the compound, how does the pIC50 (A2 receptor) read?
The pIC50 was 6.27.

And the pIC50 (A1 receptor)?
Its pIC50 is 6.31.

With `CCNC(=O)C(C)Sc1nc(N)c2cnn(-c3ccccc3)c2n1` (centres unmarked) [Compound 8] as the compound, how does the pIC50 (A1 receptor) read?
The pIC50 was 7.77.

With `CCNC(=O)[C@H]1O[C@@H](n2cnc3c(N)ncnc32)[C@H](O)[C@@H]1O` [NECA, 5'-N-ethyl carboxamidoadenosine] as the compound, how does the “agonism at the A1 site” value (A1 surface receptors) read?
Its value is “non-selective and are good agonists at both sites”.

What about the “agonist potency at A2 surface receptors” value (A2 surface receptors; adenylate cyclase systems, NECA vs R-PIA) of the same compound?
Its value is “more potent agonist at A2 surface receptors than is R-N^6 -phenylisopropyl adenosine (R-PIA)”.

What about the “agonism at the A2 site” value (A2 surface receptors) of the same compound?
Its value is “non-selective and are good agonists at both sites”.

What about the “anticonvulsant activity in reductions of amygdaloid-kindled seizures” value (rats) of the same compound?
Its value is “slightly more anticonvulsant activity than R-PIA”.

Which “agonism at the A2 site” value (A2 surface receptors) does the source give for `C[C@H](Cc1ccccc1)Nc1ncnc2c1ncn2[C@@H]1O[C@H](CO)[C@@H](O)[C@H]1O` [PIA] here?
The value was “reduced agonistic activity”.

What does the source list for `Nc1ncnc2c1ncn2[C@@H]1O[C@H](CO)[C@@H](O)[C@H]1O` [adenosine]?
effects when given to animals (animals; intraperitoneal, alone): minimal or no effects; effects in the presence of an adenosine uptake inhibitor and/or adenosine deaminase inhibitor (animals; with adenosine uptake inhibitor and/or adenosine deaminase inhibitor): can cause muscle relaxation and hypothermia; relaxation of noradrenaline-contracted guinea pig aorta [3]: relaxed; agonism at the A1 site (A1 surface receptors): non-selective and are good agonists at both sites; agonism at the A2 site (A2 surface receptors): non-selective and are good agonists at both sites; activity of adenosine in words [4]: profound hypotensive, antispasmodic, sedative and vasodilatory activity; relaxation of coronary vascular smooth muscle [5]: causes relaxation

For `Cn1c(=O)c2c(ncn2C)n(C)c1=O` [caffeine], which central stimulant action [6] is on record?
The central stimulant action was “central stimulant action”.

With `CN1C(=O)CN=C(c2ccccc2)c2cc(Cl)ccc21` [diazepam] as the compound, how does the “cerebellar levels of cyclic GMP” value (cerebellar cyclic GMP) read?
The value was “decreases cerebellar levels of cyclic GMP”.

And the pKd (benzodiazepine receptors; radioligand, read-out: Kd of ^3 H-diazepam binding)?
The pKd was 7.96.

With `Cn1c(=O)c2[nH]cnc2n(C)c1=O` [theophylline] as the compound, how does the central stimulant action [6] read?
The central stimulant action was “central stimulant action”.
